Experimental data reported in ChEMBL document CHEMBL4002642, “Design, synthesis and evaluation of antiproliferative activity of melanoma-targeted histone deacetylase inhibitors” (Bioorg Med Chem Lett, 2017).
Active and inactive are the calls of the source. No cut-off for these calls is given here.

What was measured:
[1] = molecular target: T1, Protein deacetylase HDAC6 (Homo sapiens, UniProt Q9UBN7); experiment: Inhibition of HDAC6 (unknown origin)
T1 sequence (Q9UBN7 whole entry): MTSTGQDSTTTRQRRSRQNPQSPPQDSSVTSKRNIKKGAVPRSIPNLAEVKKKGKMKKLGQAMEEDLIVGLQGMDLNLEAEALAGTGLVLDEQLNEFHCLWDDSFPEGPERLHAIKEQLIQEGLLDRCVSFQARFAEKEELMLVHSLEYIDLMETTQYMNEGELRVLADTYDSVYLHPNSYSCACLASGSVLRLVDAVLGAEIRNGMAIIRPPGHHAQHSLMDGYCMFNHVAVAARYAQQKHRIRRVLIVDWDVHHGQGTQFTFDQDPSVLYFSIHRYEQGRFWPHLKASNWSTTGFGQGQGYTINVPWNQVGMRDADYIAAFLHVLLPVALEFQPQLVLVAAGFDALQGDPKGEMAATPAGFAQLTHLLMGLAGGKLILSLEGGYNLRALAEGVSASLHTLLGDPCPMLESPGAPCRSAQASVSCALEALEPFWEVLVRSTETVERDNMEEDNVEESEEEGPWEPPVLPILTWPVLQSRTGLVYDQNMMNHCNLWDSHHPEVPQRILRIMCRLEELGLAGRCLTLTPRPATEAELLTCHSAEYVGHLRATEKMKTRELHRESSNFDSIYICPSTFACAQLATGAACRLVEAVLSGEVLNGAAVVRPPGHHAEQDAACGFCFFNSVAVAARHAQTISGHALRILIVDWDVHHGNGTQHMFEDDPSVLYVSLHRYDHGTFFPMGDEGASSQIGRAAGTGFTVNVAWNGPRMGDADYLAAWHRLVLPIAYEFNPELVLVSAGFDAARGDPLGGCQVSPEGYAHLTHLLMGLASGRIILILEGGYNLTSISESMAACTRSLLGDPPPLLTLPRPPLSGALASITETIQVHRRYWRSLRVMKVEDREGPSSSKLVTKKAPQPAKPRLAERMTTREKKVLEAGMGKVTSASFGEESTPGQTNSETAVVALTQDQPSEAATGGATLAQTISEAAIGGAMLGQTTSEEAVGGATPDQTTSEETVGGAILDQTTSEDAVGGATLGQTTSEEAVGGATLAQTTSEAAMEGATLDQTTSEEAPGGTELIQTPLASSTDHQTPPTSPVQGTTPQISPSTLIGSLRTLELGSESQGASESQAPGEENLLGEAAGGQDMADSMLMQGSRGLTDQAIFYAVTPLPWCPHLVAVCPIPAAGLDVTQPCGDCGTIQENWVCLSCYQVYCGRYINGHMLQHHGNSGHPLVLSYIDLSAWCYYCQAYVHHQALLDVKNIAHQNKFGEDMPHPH

[2] = molecular target: T2, Histone deacetylase 1 (Homo sapiens, UniProt Q13547); experiment: Inhibition of HDAC1 (unknown origin)
T2 sequence (Q13547 whole entry): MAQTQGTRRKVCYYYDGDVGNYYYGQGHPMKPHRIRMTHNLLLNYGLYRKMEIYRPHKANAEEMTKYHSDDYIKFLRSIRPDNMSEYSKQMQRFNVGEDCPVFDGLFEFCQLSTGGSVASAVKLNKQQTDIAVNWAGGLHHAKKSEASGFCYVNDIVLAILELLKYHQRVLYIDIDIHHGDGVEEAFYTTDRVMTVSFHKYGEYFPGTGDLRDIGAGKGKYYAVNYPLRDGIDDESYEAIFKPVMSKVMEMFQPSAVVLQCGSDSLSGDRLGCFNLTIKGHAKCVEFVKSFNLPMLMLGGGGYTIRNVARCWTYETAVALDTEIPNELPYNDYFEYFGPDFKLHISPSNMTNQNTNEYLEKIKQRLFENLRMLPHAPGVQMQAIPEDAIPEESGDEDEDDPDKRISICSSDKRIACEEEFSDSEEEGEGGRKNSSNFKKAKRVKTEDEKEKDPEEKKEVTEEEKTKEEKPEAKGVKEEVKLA

[3] = tested on: B16-F10; experiment: Cytotoxicity against mouse B16F10 cells assessed as growth inhibition after 72 hrs by MTS assay; format: functional, cell-based; settings: B16-F10, 72 h
[4] = tested on: A-375; experiment: Cytotoxicity against human A375 cells assessed as growth inhibition after 72 hrs by MTS assay; format: functional, cell-based; settings: A-375, 72 h
[5] = tested on: LNCaP; experiment: Cytotoxicity against human LNCAP cells assessed as growth inhibition after 72 hrs by MTS assay; format: functional, cell-based
[6] = molecular target: T2, Histone deacetylase 1; experiment: Inhibition of HDAC1 (unknown origin) at 5 uM relative to control
[7] = molecular target: T3, Protein deacetylase HDAC6 (Homo sapiens) (UniProt Q9UBN7); experiment: Inhibition of HDAC6 (unknown origin) at 5 uM relative to control
T3 sequence (whole entry): T1 sequence (Q9UBN7 whole entry)

[8] = molecular target: T4, Histone deacetylase 8 (Homo sapiens) (UniProt Q9BY41); experiment: Inhibition of HDAC8 (unknown origin) at 5 uM relative to control
T4 sequence (whole entry): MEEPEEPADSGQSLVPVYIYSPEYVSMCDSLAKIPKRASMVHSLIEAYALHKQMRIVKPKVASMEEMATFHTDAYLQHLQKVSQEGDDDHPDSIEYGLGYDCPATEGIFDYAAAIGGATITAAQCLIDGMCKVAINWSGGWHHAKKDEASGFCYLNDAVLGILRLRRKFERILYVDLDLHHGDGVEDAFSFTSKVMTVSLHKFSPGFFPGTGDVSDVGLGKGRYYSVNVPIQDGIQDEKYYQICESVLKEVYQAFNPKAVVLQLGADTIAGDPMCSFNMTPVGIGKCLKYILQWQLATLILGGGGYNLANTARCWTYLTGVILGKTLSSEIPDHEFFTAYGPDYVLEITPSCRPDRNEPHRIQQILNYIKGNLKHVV

[9] = tested on: B16-F10; experiment: Cytotoxicity against mouse B16F10 cells assessed as growth inhibition at 25 to 50 uM after 72 hrs by MTS assay; format: functional, cell-based
[10] = molecular target: T5, Protein deacetylase HDAC6 (Mus musculus) (UniProt Q9Z2V5); experiment: Inhibition of HDAC6 in mouse B16F10 cells assessed as accumulation of acetylated tubulin after 24 hrs by Western blot analysis; format: cell-based
T5 sequence (whole entry): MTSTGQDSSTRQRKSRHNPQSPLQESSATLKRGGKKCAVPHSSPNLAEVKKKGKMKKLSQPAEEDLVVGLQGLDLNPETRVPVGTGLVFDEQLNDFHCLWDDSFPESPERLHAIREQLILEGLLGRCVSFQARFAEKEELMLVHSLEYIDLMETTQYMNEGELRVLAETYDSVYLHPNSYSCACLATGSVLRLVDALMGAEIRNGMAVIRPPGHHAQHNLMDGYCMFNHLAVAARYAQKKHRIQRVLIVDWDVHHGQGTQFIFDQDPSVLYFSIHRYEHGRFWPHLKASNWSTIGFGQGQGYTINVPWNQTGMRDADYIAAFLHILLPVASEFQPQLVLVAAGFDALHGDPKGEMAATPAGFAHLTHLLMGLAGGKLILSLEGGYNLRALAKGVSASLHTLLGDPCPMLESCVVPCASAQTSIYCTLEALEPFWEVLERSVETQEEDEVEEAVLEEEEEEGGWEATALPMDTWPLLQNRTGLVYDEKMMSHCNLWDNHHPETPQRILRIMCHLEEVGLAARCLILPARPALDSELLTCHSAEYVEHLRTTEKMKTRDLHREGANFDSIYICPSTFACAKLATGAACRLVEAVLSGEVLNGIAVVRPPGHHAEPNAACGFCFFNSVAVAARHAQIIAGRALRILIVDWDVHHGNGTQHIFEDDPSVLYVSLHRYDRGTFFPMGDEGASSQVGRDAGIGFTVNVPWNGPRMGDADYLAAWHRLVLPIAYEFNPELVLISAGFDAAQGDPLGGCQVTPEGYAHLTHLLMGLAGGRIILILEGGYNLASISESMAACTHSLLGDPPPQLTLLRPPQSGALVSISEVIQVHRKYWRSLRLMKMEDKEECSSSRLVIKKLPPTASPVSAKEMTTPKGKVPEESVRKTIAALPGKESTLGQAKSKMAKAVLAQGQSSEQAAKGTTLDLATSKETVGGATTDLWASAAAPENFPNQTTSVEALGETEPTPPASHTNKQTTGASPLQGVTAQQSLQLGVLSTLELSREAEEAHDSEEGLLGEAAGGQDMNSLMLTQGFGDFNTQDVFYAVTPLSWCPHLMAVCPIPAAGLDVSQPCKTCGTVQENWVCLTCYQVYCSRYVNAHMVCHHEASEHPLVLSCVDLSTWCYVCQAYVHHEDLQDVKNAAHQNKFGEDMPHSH

[11] = molecular target: T5, Protein deacetylase HDAC6 (Mus musculus); experiment: Inhibition of HDAC6 in mouse B16F10 cells assessed as accumulation of acetylated tubulin at 20 uM after 24 hrs by Western blot analysis; format: cell-based
[12] = tested on: B16-F10; experiment: Cytotoxicity against mouse B16F10 cells assessed as growth inhibition after 72 hrs in presence of verapamil by MTS assay; format: functional, cell-based
[13] = molecular target: T5, Protein deacetylase HDAC6 (Mus musculus); experiment: Inhibition of HDAC6 in mouse B16F10 cells assessed as accumulation of acetylated tubulin at 5 to 50 uM after 24 hrs by Western blot analysis; format: cell-based

Row | IC50 [1] | IC50 [2] | inhibition [6] | inhibition [7] | inhibition [8] | inhibition [10] | inhibition [11] | inhibition [13] | SMILES | IC50 [3] | IC50 [4] | IC50 [5] | growth inhibition (GI) [9] | growth inhibition (GI) [12]
1 | 0.027 µM | 0.012 µM | – | – | – | – | – | – | CCN(CC)CCNC(=O)c1ccc(-c2cn(CCCCCCCC(=O)NO)nn2)cc1 | 75.9 µM | > 100 µM | 3 µM | – | –
2 | – | – | 100% | 99% | 52% | Dose-dependent effect | – | – | CCN(CC)CCNC(=O)c1ccc(C(=O)ONC(=O)CCCCCn2cc(-c3ccc4cc(OC)ccc4c3)nn2)cc1 | 27.8 µM | 25.9 µM | 6.46 µM | Active | –
3 | – | – | – | – | – | – | Active | – | O=C(CCCCCCC(=O)Nc1ccccc1)NO | – | – | – | – | –

Second part, the compound before the results:

Row | SMILES | IC50 [1] | IC50 [2] | inhibition [6] | inhibition [7] | inhibition [8] | inhibition [10] | inhibition [11] | inhibition [13] | IC50 [3] | IC50 [4] | IC50 [5] | growth inhibition (GI) [9] | growth inhibition (GI) [12]
4 | CCN(CC)CCNC(=O)c1ccc(-c2cn(CCCCCC(=O)NO)nn2)cn1 | 0.17 µM | 0.1 µM | – | – | – | – | – | – | > 100 µM | > 100 µM | 10.5 µM | – | –
5 | COc1ccc2cc(-c3cn(CCCCCC(=O)NO)nn3)ccc2c1 | – | – | – | – | – | – | Active | – | 10.5 µM | 12.6 µM | 5.1 µM | – | –
6 | CCN(CC)CCNC(=O)c1ccc(-c2cn(CCCCCCC(=O)NO)nn2)cc1 | 0.016 µM | 0.0038 µM | – | – | – | – | – | Active | 34.2 µM | 23.6 µM | 1.2 µM | Active | inactive
7 | CCN(CC)CCNC(=O)c1ccc(-c2cn(CCCCCCC(=O)NO)nn2)cn1 | 0.034 µM | 0.017 µM | – | – | – | – | – | – | 55.7 µM | 47.2 µM | 1.5 µM | – | inactive
